Measurements as given in US12077483B2, “Modified amine lipids” (Intellia Therapeutics, Inc., priority 2018, dated 2024).
“And” between values parts separate entries of the source, which are not always exact repeats. Equal entries are not always repeated.

Assays:
[1] = pKa of amine lipid by TNS fluorescence; type: physicochemical; conditions: probe TNS (6-(p-toluidino)-2-naphthalenesulfonic acid sodium salt), unformulated amine lipid in ethanol, sodium phosphate buffers -9.0
Procedure, shortened: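 Unformulated amine lipid, about 100 μM final, in 0.1 M sodium phosphate buffers spanning pH 4.5–9.0 with TNS. Fluorescence read at ex 321/em 448 nm; normalized data fitted sigmoidally to give pKa.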

[2] = LNP average particle size and polydispersity by dynamic light scattering; type: physicochemical
Procedure, shortened: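 LNPs were diluted in PBS to a count rate of about 200-400 kcps and measured by DLS on a Zetasizer. Size is the intensity-weighted Z-average diameter, reported with number-average diameter, and the polydispersity index describes the spread of sizes around the mean.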

[3] = RNA encapsulation efficiency of LNP (Ribogreen fluorescence assay); type: physicochemical; conditions: for % E: Table 13, LNP sgRNA:Cas9 mRNA 1:2 w/w, N/P 6.0
Procedure, shortened: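 LNP samples diluted in 1× TE with or without 0.2% Triton-X 100 for total or free RNA, stained ~10 min at room temperature in the dark with RiboGreen; fluorescence ex 488/em 525 nm against RNA standard curves. Encapsulation efficiency = (Total RNA−Free RNA)/Total RNA.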

mouse TTR = assay: Serum TTR ELISA in mice after LNP delivery; type: in vivo
Procedure, shortened: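 Female CD-1 mice received LNP at 0.1 mpk unless noted; serum was collected 6 or 7 days later. Total serum TTR was measured by mouse prealbumin ELISA at 10,000- and/or 2,500-fold dilution and is expressed as a percentage of vehicle control.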

[4] = LNP with the compound as amine lipid, Expt. 4, composition ratio (mol %) 50/9/38/3 for Cmpnd 49, 50/10/38.5/1.5 for the others
[5] = Table 3, guide G282, CD-1 female mice, 0.1 mpk i.v., Exp. 1, 8, 9, 10
[6] = Table 3, guide G282, CD-1 female mice, 0.1 mpk i.v., percentage of vehicle control (TSS)
[7] = mouse serum, relative to TSS control of same experiment, dose 0.03 mpk
[8] = mouse serum, relative to TSS control of same experiment, dose 0.1 mpk
[9] = LNP with the compound as amine lipid, Expt. 7, composition ratio (mol %) 50/9/38/3 for Cmpnd 49, 50/10/38.5/1.5 for the others
[10] = Table 6, LNP with G00282 sgRNA:Cas9 mRNA 1:1 w/w
[11] = Table 7, G00282, CD-1 female mice i.v., dose 0.1 mpk
[12] = Table 7, G00282, CD-1 female mice i.v., dose 0.1 mpk, percentage of vehicle control
[13] = Table 7, G00282, CD-1 female mice i.v., dose 0.3 mpk
[14] = Table 7, G00282, CD-1 female mice i.v., dose 0.3 mpk, percentage of vehicle control
[15] = LNP with the compound as amine lipid, Expt. 3, composition ratio (mol %) 50/9/38/3 for Cmpnd 49, 50/10/38.5/1.5 for the others
[16] = LNP with the compound as amine lipid, Expt. 10, composition ratio (mol %) 50/9/38/3 for Cmpnd 49, 50/10/38.5/1.5 for the others
[17] = Table 13, LNP sgRNA:Cas9 mRNA 1:2 w/w, N/P 6.0
[18] = LNP with the compound as amine lipid, Expt. 5, composition ratio (mol %) 50/10/38.5/1.5
[19] = LNP with the compound as amine lipid, Expt. 9, composition ratio (mol %) 50/9/38/3 for Cmpnd 49, 50/10/38.5/1.5 for the others
[20] = Table 10, LNP with G00534 sgRNA:Cas9 mRNA 1:2 w/w
[21] = mouse serum, relative to TSS control of same experiment, dose 0.03 mpk, 0.03 mg/kg
[22] = LNP with the compound as amine lipid, Expt. 1, composition ratio (mol %) 50/9/38/3 for Cmpnd 49, 50/10/38.5/1.5 for the others
[23] = LNP with the compound as amine lipid, Expt. 6, composition ratio (mol %) 50/9/38/3 for Cmpnd 49, 50/10/38.5/1.5 for the others

## CCCCC/C=C\C/C=C\CCCCCCCC(=O)OCC(COC(=O)CCCCCCC/C=C\C/C=C\CCCCC)OC(=O)CCC(CCCCCCCCCC)OC(=O)NCCN(C)CC (stereo not shown) [Compound 39, 2-((4-(((2-(ethyl(methyl)amino)ethyl)carbamoyl)oxy)tetradecanoyl)oxy)propane-1,3-diyl (9Z,9′Z,12Z,12′Z)-bis(octadeca-9,12-dienoate)]
[1]
  pKa: 6.32
[2]; [4]
  Num Ave Size (nm): 73.52 nm
  PDI: 0.015
  Z-Ave Size (nm): 89.83 nm
[3]; [4]
  Encapsulation (%): 98%
Mouse TTR; [5]
  Serum TTR: 335 µg/mL
Mouse TTR; [6]
  Serum TTR % TSS: 41% TSS
Mouse TTR; [7]
  Serum TTR % TSS: 41% TSS
Mouse TTR; [8]
  Serum TTR % TSS: 6% TSS

## CCCCC/C=C\C/C=C\CCCCCCCC(=O)OCC(COC(=O)CCCCCCC/C=C\C/C=C\CCCCC)OC(=O)CCC(CCCCCCCC)OC(=O)OCCCN1CCCC1 (stereo not shown) [Compound 36, 2-((4-(((3-(pyrrolidin-1-yl)propoxy)carbonyl)oxy)dodecanoyl)oxy)propane-1,3-diyl (9Z,9′Z,12Z,12′Z)-bis(octadeca-9,12-dienoate)]
[1]
  pKa: 6.13
[2]; [9]
  Num Ave Size (nm): 58.34 nm
  PDI: 0.058
  Z-Ave Size (nm): 75.9 nm
[3]; [9]
  Encapsulation (%): 98%
Mouse TTR; [7]
  Serum TTR % TSS: 75.785 % TSS
Mouse TTR; [8]
  Serum TTR % TSS: 43.824 % TSS

## CCCCC/C=C\C/C=C\CCCCCCCC(=O)OCC(COC(=O)CCCCCCC/C=C\C/C=C\CCCCC)OC(=O)CCC(CCCCCCCCCCCC)OC(=O)OCCCN1CCCC1 (stereo not shown) [Compound 5, 2-((4-(((3-(pyrrolidin-1-yl)propoxy)carbonyl)oxy)hexadecanoyl)oxy)propane-1,3-diyl (9Z,9′Z,12Z,12′Z)-bis(octadeca-9,12-dienoate)]
[1]
  pKa: 6.25
[2]; [10]
  Num Ave Size (nm): 62.64 nm
  PDI: 0.009
  Z-Ave Size (nm): 76.02 nm
[3]; [10]
  Encapsulation (%): 99%
Mouse TTR; [11]
  Serum TTR: 549 µg/mL
Mouse TTR; [12]
  Serum TTR % TSS: 67% TSS
Mouse TTR; [13]
  Serum TTR: 233 µg/mL
Mouse TTR; [14]
  Serum TTR % TSS: 28% TSS

## CCCCC/C=C\C/C=C\CCCCCCCC(=O)OCC(COC(=O)CCCCCCC/C=C\C/C=C\CCCCC)OC(=O)CCC(CCCCCCCC)OC(=O)NCCN1CCCC1 (stereo not shown) [Compound 51, 2-((4-(((2-(pyrrolidin-1-yl)ethyl)carbamoyl)oxy)dodecanoyl)oxy)propane-1,3-diyl (9Z,9′Z,12Z,12′Z)-bis(octadeca-9,12-dienoate)]
[1]
  pKa: 6.37
[2]; [15]
  Num Ave Size (nm): 80.57 nm
  PDI: 0.02
  Z-Ave Size (nm): 96.78 nm
[2]; [16]
  Num Ave Size (nm): 82 nm
  PDI: 0.02
  Z-Ave Size (nm): 98 nm
[2]; [17]
  Number Average [nm]: 80 nm
  PDI: 0.009
  Z-Ave Size (nm): 97.21 nm
[3]; [15]
  Encapsulation (%): 98%
[3]; [16]
  Encapsulation (%): 98%
[3]
  % E: 98%
Mouse TTR; [8]
  Serum TTR % TSS: 9.32 % TSS

## CCCCC/C=C\C/C=C\CCCCCCCC(=O)OCC(COC(=O)CCCCCCC/C=C\C/C=C\CCCCC)OC(=O)CCC(CCCCCC)OC(=O)NCCN1CCCC1 (racemic) [Compound 50, 2-((4-(((2-(pyrrolidin-1-yl)ethyl)carbamoyl)oxy)decanoyl)oxy)propane-1,3-diyl (9Z,9′Z,12Z,12′Z)-bis(octadeca-9,12-dienoate)]
[1]
  pKa: 6.5
[2]; [15]
  Num Ave Size (nm): 76.57 nm
  PDI: 0.02
  Z-Ave Size (nm): 94.33 nm
[2]; [18]
  Num Ave Size (nm): 77 nm
  PDI: 0.06
  Z-Ave Size (nm): 103.00 nm
[2]; [19]
  Num Ave Size (nm): 78 nm
  PDI: 0.04
  Z-Ave Size (nm): 98 nm
[2]; [20]
  Num Avg Size (nm): 79.18 nm
  PDI: 0.050
  Z-Avg Size (nm): 98.55 nm
[2]; [17]
  Number Average [nm]: 84.16 nm
  PDI: 0.021
  Z-Ave Size (nm): 102.8 nm
[3]; [15]
  Encapsulation (%): 98%
[3]; [18]
  Encapsulation (%): 98%
[3]; [19]
  Encapsulation (%): 97%
[3]; [20]
  Encapsulation (%): 87%
[3]
  % E: 97%
Mouse TTR; [21]
  Serum TTR % TSS: 71.3 % TSS and 45.51 % TSS and 70.1 % TSS

## CCCCC/C=C\C/C=C\CCCCCCCC(=O)OCC(COC(=O)CCCCCCC/C=C\C/C=C\CCCCC)OC(=O)CCC(CCCCCCCC)OC(=O)NCCN(C)CC (stereo not shown) [Compound 34, 2-((4-(((2-(ethyl(methyl)amino)ethyl)carbamoyl)oxy)dodecanoyl)oxy)propane-1,3-diyl (9Z,9′Z,12Z,12′Z)-bis(octadeca-9,12-dienoate)]
[1]
  pKa: 6.36
[2]; [22]
  Num Ave Size (nm): 76.32 nm
  PDI: 0.02
  Z-Ave Size (nm): 93.66 nm
[2]; [23]
  Num Ave Size (nm): 73 nm
  PDI: 0.03
  Z-Ave Size (nm): 89.00 nm
[2]; [16]
  Num Ave Size (nm): 77 nm
  PDI: 0.03
  Z-Ave Size (nm): 95 nm
[2]; [10]
  Num Ave Size (nm): 71.97 nm
  PDI: 0.015
  Z-Ave Size (nm): 86.45 nm
[2]; [20]
  Num Avg Size (nm): 76.08 nm
  PDI: 0.052
  Z-Avg Size (nm): 96.43 nm
[2]; [17]
  Number Average [nm]: 75.88 nm
  PDI: 0.009
  Z-Ave Size (nm): 93.01 nm
[3]; [22]
  Encapsulation (%): 98%
[3]; [23]
  Encapsulation (%): 98%
[3]; [16]
  Encapsulation (%): 98%
[3]; [10]
  Encapsulation (%): 98%
[3]; [20]
  Encapsulation (%): 93%
[3]
  % E: 97%
Mouse TTR; [11]
  Serum TTR: 170 µg/mL
Mouse TTR; [12]
  Serum TTR % TSS: 21% TSS
Mouse TTR; [13]
  Serum TTR: 45 µg/mL
Mouse TTR; [14]
  Serum TTR % TSS: 5% TSS
Mouse TTR; [21]
  Serum TTR % TSS: 55% TSS and 85.10 % TSS

## CCCCC/C=C\C/C=C\CCCCCCCC(=O)OCC(COC(=O)CCCCCCC/C=C\C/C=C\CCCCC)OC(=O)CCC(CCCCCC)OC(=O)NCCN(C)CC (stereo not shown) [Compound 40, 2-((4-(((2-(ethyl(methyl)amino)ethyl)carbamoyl)oxy)decanoyl)oxy)propane-1,3-diyl (9Z,9′Z,12Z,12′Z)-bis(octadeca-9,12-dienoate)]
[1]
  pKa: 6.34
[2]; [4]
  Num Ave Size (nm): 81.51 nm
  PDI: 0.027
  Z-Ave Size (nm): 101.10 nm
[3]; [4]
  Encapsulation (%): 97%
Mouse TTR; [5]
  Serum TTR: 251 µg/mL
Mouse TTR; [6]
  Serum TTR % TSS: 31% TSS
Mouse TTR; [7]
  Serum TTR % TSS: 77% TSS
Mouse TTR; [8]
  Serum TTR % TSS: 9% TSS
